From patent US20090023773A1, “COMPOSITIONS AND METHODS FOR MODULATING GATED ION CHANNELS” (PainCeptor Pharma Corporation, priority 2007, published 2009)

Experiments:
[1] = molecular target: T1, hASIC2a/3 steady state (window) current (Homo sapiens, UniProt Q16515+Q9UHC3); settings: supramaximal concentration; Babinski et al. (2000); cited from earlier work
T1 construct: expressed in transfected cells; host or cells: Xenopus laevis oocytes, cRNA microinjection, 1:1 mass ratio
T1 sequence (Q16515 1-512): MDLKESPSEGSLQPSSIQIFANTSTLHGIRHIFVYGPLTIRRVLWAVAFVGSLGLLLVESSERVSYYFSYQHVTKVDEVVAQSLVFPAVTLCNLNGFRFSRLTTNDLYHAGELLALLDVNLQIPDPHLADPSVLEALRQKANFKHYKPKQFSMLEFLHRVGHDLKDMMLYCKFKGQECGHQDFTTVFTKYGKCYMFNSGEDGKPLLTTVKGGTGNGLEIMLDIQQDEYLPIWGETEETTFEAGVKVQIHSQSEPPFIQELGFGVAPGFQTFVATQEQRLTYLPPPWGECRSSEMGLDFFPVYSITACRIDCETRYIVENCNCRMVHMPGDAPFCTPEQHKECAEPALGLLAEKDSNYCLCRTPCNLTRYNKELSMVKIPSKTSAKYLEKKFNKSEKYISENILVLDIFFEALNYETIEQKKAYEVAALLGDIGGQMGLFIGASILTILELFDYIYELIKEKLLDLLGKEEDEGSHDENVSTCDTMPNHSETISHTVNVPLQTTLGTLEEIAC
T1 sequence (Q9UHC3 1-531): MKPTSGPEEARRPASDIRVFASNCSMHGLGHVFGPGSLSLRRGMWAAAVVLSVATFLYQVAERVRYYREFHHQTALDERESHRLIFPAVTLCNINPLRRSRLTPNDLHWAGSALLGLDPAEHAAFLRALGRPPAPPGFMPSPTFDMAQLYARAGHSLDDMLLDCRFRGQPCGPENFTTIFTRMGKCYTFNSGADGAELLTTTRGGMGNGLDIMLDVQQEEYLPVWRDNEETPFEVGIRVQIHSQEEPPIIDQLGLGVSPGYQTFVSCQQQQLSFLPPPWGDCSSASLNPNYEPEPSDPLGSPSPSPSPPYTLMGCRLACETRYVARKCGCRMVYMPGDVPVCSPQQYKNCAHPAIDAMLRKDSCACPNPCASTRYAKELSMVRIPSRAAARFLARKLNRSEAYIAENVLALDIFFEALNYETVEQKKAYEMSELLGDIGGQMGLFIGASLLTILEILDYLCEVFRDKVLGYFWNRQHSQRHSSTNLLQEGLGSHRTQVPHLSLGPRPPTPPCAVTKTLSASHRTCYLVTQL

[2] = system: chemically-induced spontaneous pain evoked by intraplantar injection of formalin; test: Formalin test, model of acute tonic pain (Example 7); type: in vivo; settings: rat; SC, 10 and 300 μmol/kg, 60 min prior to formalin; FIG. 9A
Procedure: Male Sprague-Dawley rats are housed together in groups of three animals under standard conditions with unrestricted access to food and water. All experiments are conducted according to the ethical guidelines for investigations of experimental pain in conscious animals (Zimmerman, 1983).
Assessment of formalin-induced flinching behavior in normal, uninjured rats (body weight 200-300 g) is made after formalin (2.5% in saline, 50-100 μl, s.c.) is injected into the plantar surface of the hindpaw using a 27 G needle. Rats are pretreated with test compounds either administered intravenously (IV), by subcutaneous injection (SC) or by orally (PO).
Nociceptive behavior is determined manually every 5 min by measuring the amount of time spent in each of four behavioral categories: 0, treatment of the injected hindpaw is indistinguishable from that of the contralateral paw; 1, the injected paw has little or no weight placed on it; 2, the injected paw is elevated and is not in contact with any surface; 3, the injected paw is licked, bitten, or shaken. A weighted nociceptive score, ranging from 0 to 3 is calculated by multiplying the time spent in each category by the category weight, summing these products, and dividing by the total time for each 5 min block of time. (Coderre et al., Pain 1993; 54: 43). On the basis of the resulting response patterns, […] of nociceptive behavior are identified and scored: first phase (P1; 0-5 min), interphase (Int; 6-15 min), second phase (P2; […]), phase 2A (P2A; 16-40 min) and phase 2B (P2B; 41-60 min).
Statistical analysis is performed using the Prism™ 4.01 software package (GraphPad, San Diego, Calif., USA). The difference in response levels between treatment groups and control vehicle group is analyzed using an ANOVA followed by Bonferroni's method for post-hoc pair-wise comparisons. A p value <0.05 is considered to be significant.

[3] = molecular target: T1, hASIC2a/3 steady state (window) current; test: ASIC2a/3 assay, automated two-electrode voltage clamp in oocytes microinjected with hASIC2a and hASIC3 (Example 2); type: cell-based; settings: 50 μM, perfusion at pH 6.5; FIG. 8
Procedure: The ASIC2a/3 assay involves methods and procedures commonly in use and have been extensively described in the literature.
Briefly, a mature female frog is placed on its back after anesthesia, 20 min in 0.1% (w/v) Tricaine (Sigma), and incision is made on the lower abdomen through the skin, muscle and into the peritoneum. Lobes of ovaries are pulled out with forceps, cut and placed in a solution of Ca^2+-free Barth's with 1% (w/v) collagenase Type I (Sigma) added, for 90 minutes. The dissociated eggs are then washed with complete Barth's, supplementd with […] Gentamycin.
Plasmids containing cDNA for ASIC2a+ASIC3 are linearized and used for cRNA synthesis. The synthesis is done according to the protocol insert of the synthesis kit (e.g. Message Machine, Ambion). The final resuspension of the cRNA is made to provide a concentration of 1 μg/μL. The cDNA's for hASIC2a and hASIC3 are mixed with a 1:1 mass ratio and injected at […] per oocyte. Micro-injected oocytes start expressing hASIC2a3 specific current after 24 h.
The oocytes micro-injected with hASIC2a and hASIC3 cRNA's are placed in the recording chambers of the automated rig and then impaled with the voltage and current micro-electrodes. […] The voltage and current for each oocyte is recorded in one pass during both applications for later analysis. […]

Structure (SMILES) | block of the ASIC2A/3 steady state current [1] | pain intensity as evaluated by the licking behavior [2] | inhibition of the ASIC 2a/3 current [3]
[Gd+3] [gadolinium (Gd^3+)] | completely block |  | 
O=C(O)c1ccc(Nc2nc(-c3ccc(Cl)cc3)nc3ccccc23)cc1 [Compound 111] |  | dose-dependent reduction | specific inhibition
